Columns and labels:
KRAS WT = target: T1, KRAS WT (Homo sapiens, UniProt P01116); assay: HTRF nucleotide exchange assay, KRAS WT; format: biochemical; settings: class symbols; for IC50: HTRF nucleotide exchange assay (NEA)
T1 construct: aa1-188 KRAS WT

KRAS G12D = target: T2, KRAS G12D (Homo sapiens, UniProt P01116, G12D); assay: HTRF nucleotide exchange assay, KRAS G12D; format: biochemical; settings: class symbols; for IC50: HTRF nucleotide exchange assay (NEA)
T2 construct: aa1-188 KRAS WT, HRAS WT, NRAS WT, or KRAS containing the G12D

| IC50 (KRAS WT) [nM] | IC50 (KRAS G12D) [nM] | KRAS^WT NEA (KRAS WT) | KRAS^G12D NEA (KRAS G12D) | Structure (SMILES) |
| --- | --- | --- | --- | --- |
| 10 to 100 | ≤ 10 |  |  | CCc1c(F)ccc2cc(O)cc(-c3cc4nc(OC[C@@]56CCCN5C[C@H](F)C6)nc(N5CCCn6nccc6C5)c4c4cn(C)nc34)c12 [Example 59, 5-ethyl-6-fluoro-4-[2-methyl-7-[[(2R,8S)-2-fluoro-1,2,3,5,6,7-hexahydropyrrolizin-8-yl]methoxy]-9-(4,6,7,8-tetrahydropyrazolo[1,5-a][1,4]diazepin-5-yl)pyrazolo[4,3-f]quinazolin-4-yl]naphthalen-2-ol] |
| 100 to 10000 | 10 to 100 |  |  | Cc1cc2[nH]ncc2c(-c2cc3nc(OC[C@@]45CCCN4C[C@H](F)C5)nc(N4CCCn5nc(C(=O)N(C)C)cc5C4)c3c3cn(C)nc23)c1C [Example 60, 5-[4-(5,6-dimethyl-1H-indazol-4-yl)-2-methyl-7-[[(2R,8S)-2-fluoro-1,2,3,5,6,7-hexahydropyrrolizin-8-yl]methoxy]pyrazolo[4,3-f]quinazolin-9-yl]-N,N-dimethyl-4,6,7,8-tetrahydropyrazolo[1,5-a][1,4]diazepine-2-carboxamide] |
| 100 to 10000 | 10 to 100 |  |  | CN(C)C(=O)c1cc2n(n1)CCCN(c1nc(OC[C@@]34CCCN3C[C@H](F)C4)nc3cc(-c4cc(O)c(F)c5ccccc45)c4nn(C)cc4c13)C2 [Example 61, 5-[4-(4-fluoro-3-hydroxy-1-naphthyl)-2-methyl-7-[[(2R,8S)-2-fluoro-1,2,3,5,6,7-hexahydropyrrolizin-8-yl]methoxy]pyrazolo[4,3-f]quinazolin-9-yl]-N,N-dimethyl-4,6,7,8-tetrahydropyrazolo[1,5-a][1,4]diazepine-2-carboxamide] |
| 100 to 10000 | 10 to 100 |  |  | CN(C)C(=O)c1cc2n(n1)CCCN(c1nc(OC[C@@]34CCCN3C[C@H](F)C4)nc3cc(-c4cc(O)ccc4C#N)c4nn(C)cc4c13)C2 [Example 62] |
| 10 to 100 | ≤ 10 |  |  | CCc1c(F)ccc2cccc(-c3cc4nc(OC[C@@]56CCCN5C[C@H](F)C6)nc(N5CCCn6nc(C(=O)N(C)C)cc6C5)c4c4cn(C)nc34)c12 [Example 63, 5-[4-(8-ethyl-7-fluoro-1-naphthyl)-2-methyl-7-[[(2R,8S)-2-fluoro-1,2,3,5,6,7-hexahydropyrrolizin-8-yl]methoxy]pyrazolo[4,3-f]quinazolin-9-yl]-N,N-dimethyl-4,6,7,8-tetrahydropyrazolo[1,5-a][1,4]diazepine-2-carboxamide] |
| ≤ 10 | ≤ 10 |  |  | C#Cc1c(F)ccc2cc(O)cc(-c3cc4nc(OC[C@@]56CCCN5C[C@H](F)C6)nc(N5CCCn6nc(C(=O)N(C)C)cc6C5)c4c4cn(C)nc34)c12 [Example 65, 5-[4-(8-ethynyl-7-fluoro-3-hydroxy-1-naphthyl)-2-methyl-7-[[(2R,8S)-2-fluoro-1,2,3,5,6,7-hexahydropyrrolizin-8-yl]methoxy]pyrazolo[4,3-f]quinazolin-9-yl]-N,N-dimethyl-4,6,7,8-tetrahydropyrazolo[1,5-a][1,4]diazepine-2-carboxamide] |
| 10 to 100 | 10 to 100 |  |  | CCC1CCCc2cc(O)cc(-c3cc4nc(OC[C@@]56CCCN5C[C@H](F)C6)nc(N5CCCOCC5)c4c4cn(C)nc34)c21 (stereo partly drawn) [Example 66, 1-ethyl-8-[2-methyl-9-(1,4-oxazepan-4-yl)-7-[[(2R,8S)-2-fluoro-1,2,3,5,6,7-hexahydropyrrolizin-8-yl]methoxy]pyrazolo[4,3-f]quinazolin-4-yl]tetralin-6-ol] |
| 10 to 100 | ≤ 10 |  |  | CCc1c(F)ccc2cc(O)cc(-c3cc4nc(OCC5(CN6CCOCC6)CC5)nc(N5CCCn6nc(C(=O)N(C)C)cc6C5)c4c4cn(C)nc34)c12 [Example 69, 5-[4-(8-ethyl-7-fluoro-3-hydroxy-1-naphthyl)-2-methyl-7-[[1-(morpholinomethyl)cyclopropyl]methoxy]pyrazolo[4,3-f]quinazolin-9-yl]-N,N-dimethyl-4,6,7,8-tetrahydropyrazolo[1,5-a][1,4]diazepine-2-carboxamide] |
| 10 to 100 | ≤ 10 |  |  | CCc1c(F)ccc2cc(O)cc(-c3cc4nc(OC[C@@H]5CCN5C)nc(N5CCCn6nc(C(=O)N(C)C)cc6C5)c4c4cn(C)nc34)c12 [Example 70] |
|  |  | D (<49% inhibition at 10 μM) | D (<49% inhibition at 10 μM) | CCc1c(F)ccc2cc(O)cc(-c3cc4nc(OCC5(CN6CCC[C@H]6C(F)(F)F)CC5)nc(N5CCCn6nc(C(=O)N(C)C)cc6C5)c4c4cn(C)nc34)c12 [Example 71] |
| 10 to 100 | ≤ 10 |  |  | CCc1c(F)ccc2cc(O)cc(-c3cc4nc(OC[C@@]56CCCN5C[C@H](F)C6)nc(N5CCCn6nc(C)cc6C5)c4c4cn(C)nc34)c12 [Example 72] |
| 10 to 100 | ≤ 10 |  |  | CCc1c(F)ccc2cc(O)cc(-c3cc4nc(OC[C@@]56CCCN5C[C@H](F)C6)nc(N5CCCn6nc(C#N)cc6C5)c4c4cn(C)nc34)c12 [Example 73, 5-[4-(8-ethyl-7-fluoro-3-hydroxy-1-naphthyl)-7-[[(2R,8S)-2-fluoro-1,2,3,5,6,7-hexahydropyrrolizin-8-yl]methoxy]-2-methyl-pyrazolo[4,3-f]quinazolin-9-yl]-4,6,7,8-tetrahydropyrazolo[1,5-a][1,4]diazepine-2-carbonitrile] |
| 10 to 100 | ≤ 10 |  |  | Cc1cc2[nH]ncc2c(-c2cc3nc(OC[C@@]45CCCN4C[C@H](F)C5)nc(N4CCCn5nc(C(=O)N(C)C)cc5C4)c3c3cn(C)nc23)c1C1CC1 [Example 74, 5-[4-(5-cyclopropyl-6-methyl-1H-indazol-4-yl)-2-methyl-7-[[(2R,8S)-2-fluoro-1,2,3,5,6,7-hexahydropyrrolizin-8-yl]methoxy]pyrazolo[4,3-f]quinazolin-9-yl]-N,N-dimethyl-4,6,7,8-tetrahydropyrazolo[1,5-a][1,4]diazepine-2-carboxamide] |
| 10 to 100 | ≤ 10 |  |  | CN(C)C(=O)c1cc2n(n1)CCCN(c1nc(OC[C@@]34CCCN3C[C@H](F)C4)nc3cc(-c4cccc5sc(N)c(C#N)c45)c4nn(C)cc4c13)C2 [Example 76, 5-[4-(2-amino-3-cyano-benzothiophen-4-yl)-7-[[(2R,8S)-2-fluoro-1,2,3,5,6,7-hexahydropyrrolizin-8-yl]methoxy]-2-methyl-pyrazolo[4,3-f]quinazolin-9-yl]-N,N-dimethyl-4,6,7,8-tetrahydropyrazolo[1,5-a][1,4]diazepine-2-carboxamide] |
| 100 to 10000 | 100 to 10000 |  |  | Cc1cc(N)nc(-c2cc3nc(OC[C@@]45CCCN4C[C@H](F)C5)nc(N4CCCn5nc(C(=O)N(C)C)cc5C4)c3c3cn(C)nc23)c1C(F)(F)F [Example 77, 5-[4-[6-amino-4-methyl-3-(trifluoromethyl)-2-pyridyl]-7-[[(2R,8S)-2-fluoro-1,2,3,5,6,7-hexahydropyrrolizin-8-cyl]methoxy]-2-methyl-pyrazolo[4,3-f]quinazolin-9-yl]-N,N-dimethyl-4,6,7,8-tetrahydropyrazolo[1,5-a][1,4]diazepine-2-carboxamide] |
| 100 to 10000 | ≤ 10 |  |  | CCc1c(F)ccc2cc(O)cc(-c3cc4nc(OC[C@@]56CCCN5C[C@H](F)C6)nc(N5CCCn6nc(C(=O)N(C)C)cc6C5)c4c4cn(CC(F)(F)F)nc34)c12 [Example 78, 5-[4-(8-ethyl-7-fluoro-3-hydroxy-1-naphthyl)-7-[[(2R,8S)-2-fluoro-1,2,3,5,6,7-hexahydropyrrolizin-8-yl]methoxy]-2-(2,2,2-trifluoroethyl)pyrazolo[4,3-f]quinazolin-9-yl]-N,N-dimethyl-4,6,7,8-tetrahydropyrazolo[1,5-a][1,4]diazepine-2-carboxamide] |
| ≤ 10 | ≤ 10 |  |  | CCc1c(F)ccc2cc(O)cc(-c3c(C)c4nc(OC[C@@]56CCCN5C[C@H](F)C6)nc(N5CCCOCC5)c4c4cn(C)nc34)c12 [Example 79, 4-[2,5-dimethyl-9-(1,4-oxazepan-4-yl)-7-[[(2R,8S)-2-fluoro-1,2,3,5,6,7-hexahydropyrrolizin-8-yl]methoxy]pyrazolo[4,3-f]quinazolin-4-yl]-5-ethyl-6-fluoro-naphthalen-2-ol] |
| ≤ 10 | ≤ 10 |  |  | CCc1c(F)ccc2cc(O)cc(-c3c(C)c4nc(OC[C@@]56CCCN5C[C@H](F)C6)nc(N5CCCn6nc(C(=O)N(C)C)cc6C5)c4c4cn(C)nc34)c12 [Example 80, 5-[4-(8-ethyl-7-fluoro-3-hydroxy-1-naphthyl)-2,5-dimethyl-7-[[(2R,8S)-2-fluoro-1,2,3,5,6,7-hexahydropyrrolizin-8-yl]methoxy]pyrazolo[4,3-f]quinazolin-9-yl]-N,N-dimethyl-4,6,7,8-tetrahydropyrazolo[1,5-a][1,4]diazepine-2-carboxamide] |
| 10 to 100 | ≤ 10 |  |  | CN(C)C(=O)c1cc2n(n1)CCCN(c1nc(OC[C@@]34CCCN3C[C@H](F)C4)nc3cc(-c4ccc(F)c5sc(N)c(C#N)c45)c4nn(C)cc4c13)C2 [Example 81, 5-[4-(2-amino-3-cyano-7-fluoro-benzothiophen-4-yl)-7-[[(2R,8S)-2-fluoro-1,2,3,5,6,7-hexahydropyrrolizin-8-yl]methoxy]-2-methyl-pyrazolo[4,3-f]quinazolin-9-yl]-N,N-dimethyl-4,6,7,8-tetrahydropyrazolo[1,5-a][1,4]diazepine-2-carboxamide] |
| ≤ 10 | ≤ 10 |  |  | CCc1c(F)ccc2c(F)c(O)cc(-c3cc4nc(OC[C@@]56CCCN5C[C@H](F)C6)nc(N5CCCn6nc(C(=O)N(C)C)cc6C5)c4c4cn(C)nc34)c12 [Example 82, 5-[4-(8-ethyl-4,7-difluoro-3-hydroxy-1-naphthyl)-2-methyl-7-[[(2R,8S)-2-fluoro-1,2,3,5,6,7-hexahydropyrrolizin-8-yl]methoxy]pyrazolo[4,3-f]quinazolin-9-yl]-N,N-dimethyl-4,6,7,8-tetrahydropyrazolo[1,5-a][1,4]diazepine-2-carboxamide] |

From patent US20260347364A1, “PYRAZOLO[4,3-F]QUINAZOLINE DERIVATIVES AS MODULATORS OF G12D MUTANT KRAS USEFUL FOR THE TREATMENT OF CANCER” (JAZZ PHARMACEUTICALS IRELAND LTD., priority 2023, published 2026)
